Source: US10370401B2, “Substituted nucleosides, nucleotides and analogs thereof” (Alios BioPharma, Inc., priority 2013, dated 2019)
Like-named read-outs stand apart in the source and are kept apart here.

Experiments:
[1] = molecular target: human rhinovirus 16 polymerase (HRV16pol) (Human rhinovirus 16, UniProt Q82122); assay: biochemical
NS5B570-Con1 (Delta-21) = NS5B570-Con1 (Delta-21) (Hepatitis C virus genotype 1b, UniProt Q9WMX2); assay: biochemical; design: species or system HCV
Human rhinovirus 1B = assay: Picornavirus assay (CPE, CellTiter-Glo, HeLa-OHIO cells); type: cell-based; conditions: Rhinovirus A, 96 h
[2] = HRV16pol, 2.5 h at 30° C., mean of several independent experiments, read-out: IC50
[3] = Human rhinovirus 1B, HeLa-OHIO cells, 4 d at 33° C., read-out: EC50

human rhinovirus 16 polymerase (HRV16pol), sequence (Q82122 1694-2153 limits assumed): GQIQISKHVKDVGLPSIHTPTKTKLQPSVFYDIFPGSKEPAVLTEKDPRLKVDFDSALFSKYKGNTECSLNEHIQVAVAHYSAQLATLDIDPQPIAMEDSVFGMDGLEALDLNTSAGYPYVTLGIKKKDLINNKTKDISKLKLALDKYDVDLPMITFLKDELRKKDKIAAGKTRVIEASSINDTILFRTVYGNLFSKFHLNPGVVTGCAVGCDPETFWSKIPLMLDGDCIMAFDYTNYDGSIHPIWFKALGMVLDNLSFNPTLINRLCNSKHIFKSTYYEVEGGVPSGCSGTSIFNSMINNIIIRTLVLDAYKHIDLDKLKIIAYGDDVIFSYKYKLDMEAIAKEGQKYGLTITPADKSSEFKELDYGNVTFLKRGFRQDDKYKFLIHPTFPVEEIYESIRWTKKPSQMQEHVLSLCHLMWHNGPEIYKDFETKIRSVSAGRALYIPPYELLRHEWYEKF

Compound	IC50 [1, 2] [µM]	IC50 (NS5B570-Con1 (Delta-21)) [µM]	further results
C=C[C@@]1(O)[C@H](O)[C@@](CF)(COP(=O)(O)OP(=O)(O)OP(=O)(O)O)O[C@H]1n1ccc(=O)[nH]c1=O [compound 251]	< 10		
C[C@@]1(O)[C@H](O)[C@@](CCl)(COP(=O)(O)OP(=O)(O)OP(=O)(O)O)O[C@H]1n1ccc(=O)[nH]c1=O [compound 244]	< 10	< 1	
C=CC[C@@]1(O)[C@H](O)[C@@](CF)(COP(=O)(O)OP(=O)(O)OP(=O)(O)O)O[C@H]1n1ccc(=O)[nH]c1=O [compound 253]	< 10	10 to 100	
Nc1ccn([C@@H]2O[C@](CF)(COP(=O)(O)OP(=O)(O)OP(=O)(O)O)[C@@H](O)C2(F)F)c(=O)n1 [compound 82]	< 1	10 to 100	
[N-]=[N+]=NC[C@]1(CO)O[C@@H](n2ccc(N)nc2=O)C(F)(F)[C@@H]1O [Compound 296]			EC50 (Human rhinovirus 1B; [3]): 1 to 10 µM
CC[C@]1(CO)O[C@@H](n2ccc(N)nc2=O)C(F)(F)[C@@H]1O [Compound 1]			EC50 (Human rhinovirus 1B; [3]): 1 to 10 µM
C#C[C@@]1(O)[C@H](O)[C@@](CF)(COP(=O)(O)OP(=O)(O)OP(=O)(O)O)O[C@H]1n1ccc(=O)[nH]c1=O [compound 61]	< 1	< 1	
C[C@@]1(Cl)[C@H](O)[C@@](CF)(COP(=O)(O)OP(=O)(O)OP(=O)(O)O)O[C@H]1n1ccc(=O)[nH]c1=O [compound 210]		1 to 10	
N#C[C@@]1(n2ccc(=O)[nH]c2=O)O[C@](CF)(COP(=O)(O)OP(=O)(O)OP(=O)(O)O)[C@@H](O)[C@H]1O [compound 237]	< 1		
CC(C)OC(=O)[C@H](C)NP(=O)(OC[C@@]1(F)O[C@@H](n2ccc(=O)[nH]c2=O)[C@](C)(O)[C@@H]1O)Oc1ccc(Cl)cc1 (stereo partly drawn) [Compound 152]			EC50 (Human rhinovirus 1B): 1 to 10 µM
C[C@]1(O)[C@H](n2cnc3c(N)ncnc32)O[C@](F)(COP(=O)(O)OP(=O)(O)OP(=O)(O)O)[C@H]1O [compound 240]	< 1	< 1	
[N-]=[N+]=NC[C@]1(COP(=O)(O)OP(=O)(O)OP(=O)(O)O)O[C@@H](n2ccc(N)nc2=O)[C@H](O)[C@@H]1O [compound 275]	< 10		
C[C@@]1(O)[C@H](O)[C@@](CF)(CO[P@@](O)(=S)OP(=O)(O)OP(=O)(O)O)O[C@H]1n1ccc(=O)[nH]c1=O [Compound 98]		10 to 100	
CC#C[C@@]1(O)[C@H](O)[C@@](CF)(COP(=O)(O)OP(=O)(O)OP(=O)(O)O)O[C@H]1n1ccc(=O)[nH]c1=O [compound 252]	< 10	1 to 10	
[N-]=[N+]=NC[C@]1(COP(=O)(O)OP(=O)(O)OP(=O)(O)O)O[C@@H](n2ccc(N)nc2=O)[C@H](F)[C@@H]1O [compound 107]	< 1		
C[C@@]1(O)[C@H](O)[C@@](CF)(CO[P@](O)(=S)OP(=O)(O)OP(=O)(O)O)O[C@H]1n1ccc(=O)[nH]c1=O [Compound 97]			IC50 [1]: < 10 µM
C[C@H](NP(=O)(OC[C@@]1(F)O[C@@H](n2ccc(=O)[nH]c2=O)[C@](C)(O)[C@@H]1O)Oc1ccccc1)C(=O)OC1CCCCC1 (stereo partly drawn) [Compound 8]			EC50 (Human rhinovirus 1B): 1 to 10 µM
C#C[C@@]1(O)[C@H](O)[C@@H](COP(=O)(O)OP(=O)(O)OP(=O)(O)O)O[C@H]1n1ccc2c(N)ncnc21 [compound 205]	< 1	< 1	
C=C[C@]1(COP(=O)(O)OP(=O)(O)OP(=O)(O)O)O[C@@H](n2ccc(=O)[nH]c2=O)C(F)(F)[C@@H]1O [compound 72]	< 100	10 to 100	
CC(C)(C)C(=O)OCOP(=O)(OCOC(=O)C(C)(C)C)OC[C@@]1(F)O[C@@H](n2ccc(=O)[nH]c2=O)[C@](C)(O)[C@@H]1O [Compound 151]			EC50 (Human rhinovirus 1B; [3]): < 1 µM
C#C[C@@]1(O)[C@H](O)[C@@H](COP(=O)(O)OP(=O)(O)OP(=O)(O)O)O[C@H]1n1cnc2c(N)ncnc21 [compound 202]	< 1		
O=c1ccn([C@@H]2O[C@](CCl)(COP(=O)(O)OP(=O)(O)OP(=O)(O)O)[C@@H](O)C2(F)F)c(=O)[nH]1 [compound 73]	< 10	10 to 100	
CC(C)OC(=O)OCOP1(=O)OC[C@@]2(CF)O[C@@H](n3ccc(=O)[nH]c3=O)[C@](C)(O)[C@@H]2O1 (stereo partly drawn) [Compound 158]			EC50 (Human rhinovirus 1B; [3]): 10 to 100 µM
C[C@]1(N=[N+]=[N-])[C@H](n2ccc(N)nc2=O)O[C@](F)(COP(=O)(O)OP(=O)(O)OP(=O)(O)O)[C@H]1O [compound 208]	< 10	< 1	
C#C[C@@]1(n2cnc3c(=O)[nH]c(N)nc32)O[C@H](COP(=O)(O)OP(=O)(O)OP(=O)(O)O)[C@@H](O)[C@H]1F [compound 242]	< 10		
CC(C)OC(=O)OC(C)OP(=O)(OC[C@@]1(CF)O[C@@H](n2ccc(=O)[nH]c2=O)[C@](C)(O)[C@@H]1O)OC(C)OC(=O)OC(C)C (stereo partly drawn) [Compound 159]			EC50 (Human rhinovirus 1B; [3]): 10 to 100 µM
C#C[C@]1(COP(=O)(O)OP(=O)(O)OP(=O)(O)O)O[C@@H](n2ccc(N)nc2=O)C(F)(F)[C@@H]1O [compound 279]	< 10	10 to 100	
C[C@]1(O)[C@H](n2ccc(=O)[nH]c2=O)O[C@@](COP(=O)(O)OP(=O)(O)OP(=O)(O)O)(C(F)F)[C@H]1O [compound 273]	< 10	10 to 100	

Compound	IC50 [1, 2] [µM]	IC50 (NS5B570-Con1 (Delta-21)) [µM]	further results
N#C[C@@]1(n2ccc(N)nc2=O)O[C@](CF)(COP(=O)(O)OP(=O)(O)OP(=O)(O)O)[C@@H](O)[C@H]1O [compound 238]	< 10		
C[C@@]1(O)[C@H](O)[C@@](CN=[N+]=[N-])(COP(=O)(O)OP(=O)(O)OP(=O)(O)O)O[C@H]1n1ccc(=O)[nH]c1=O [compound 249]	< 100	10 to 100	
CCOc1nc(NC=O)nc2c1ncn2[C@@H]1O[C@](F)(COP(=O)(N[C@@H](C)C(=O)OC2CCCCC2)Oc2ccccc2)[C@@H](F)[C@@]1(C)O (stereo partly drawn) [Compound 17]			EC50 (Human rhinovirus 1B): 10 to 100 µM
C[C@]1(O)[C@H](n2ccc(=O)[nH]c2=O)O[C@](C)(COP(=O)(O)OP(=O)(O)OP(=O)(O)O)[C@H]1O [compound 58]	< 10		
C[C@]1(O)[C@H](n2ccc(N)nc2=O)O[C@](C)(COP(=O)(O)OP(=O)(O)OP(=O)(O)O)[C@H]1O [compound 243]	< 10	1 to 10	
[N-]=[N+]=NC[C@]1(COP(=O)(O)OP(=O)(O)OP(=O)(O)O)O[C@@H](n2ccc(N)nc2=O)C(F)(F)[C@@H]1O [compound 274]	< 10		
C#C[C@]1(O)[C@H](n2cnc3c(N)ncnc32)O[C@](C)(COP(=O)(O)OP(=O)(O)OP(=O)(O)O)[C@H]1O [compound 59]	< 100	1 to 10	
CC[C@]1(O)[C@H](n2ccc(=O)[nH]c2=O)O[C@](F)(COP(=O)(O)OP(=O)(O)OP(=O)(O)O)[C@H]1O [compound 239]	< 10	10 to 100	
CC(=O)O[C@H]1[C@@](C)(O)[C@H](n2ccc(=O)[nH]c2=O)O[C@]1(F)COP(=O)(N[C@@H](C)C(=O)OC(C)C)Oc1ccc(Cl)cc1 (stereo partly drawn) [Compound 153]			EC50 (Human rhinovirus 1B): 1 to 10 µM
Nc1ccn([C@@H]2O[C@@](COP(=O)(O)OP(=O)(O)OP(=O)(O)O)(C(F)F)[C@H](O)[C@@H]2F)c(=O)n1 [compound 168]	< 10		
Nc1ccn([C@@H]2O[C@](CF)(COP(=O)(O)OP(=O)(O)OP(=O)(O)O)[C@@H](O)[C@]2(O)CF)c(=O)n1 [compound 258]	< 1	10 to 100	
CC(C)OC(=O)[C@H](C)NP(=O)(OC[C@@]1(F)O[C@@H](n2ccc(=O)[nH]c2=O)[C@](C)(O)[C@@H]1O)Oc1ccccc1 (stereo partly drawn) [Compound 5]			EC50 (Human rhinovirus 1B): 10 to 100 µM
C[C@]1(F)[C@H](n2ccc(N)nc2=O)O[C@](F)(CO)[C@H]1O [Compound 18]			EC50 (Human rhinovirus 1B; [3]): 10 to 100 µM
C=C[C@]1(COP(=O)(O)OP(=O)(O)OP(=O)(O)O)O[C@@H](n2ccc(N)nc2=O)C(F)(F)[C@@H]1O [compound 79]	< 10	10 to 100	
C#C[C@@]1(O)[C@H](O)[C@@](CF)(COP(=O)(O)OP(=O)(O)OP(=O)(O)O)O[C@H]1n1cnc2c(N)ncnc21 [compound 93]	< 1	10 to 100	
C[C@@]1(O)[C@H](O)[C@](CO)(CF)O[C@H]1n1ccc(N)nc1=O [Compound 40]			EC50 (Human rhinovirus 1B; [3]): 10 to 100 µM
O=c1ccn([C@@H]2O[C@](F)(COP(=O)(O)OP(=O)(O)OP(=O)(O)O)[C@@H](O)[C@]2(O)CF)c(=O)[nH]1 [compound 257]	< 10		
C[C@]1(COP(=O)(O)OP(=O)(O)OP(=O)(O)O)O[C@@H](n2ccc(N)nc2=O)C(F)(F)[C@@H]1O [compound 277]	< 10	10 to 100	
C[C@H](NP(=O)(OC[C@@]1(F)O[C@@H](n2cnc3c(=O)[nH]c(N)nc32)[C@](C)(O)[C@@H]1O)Oc1ccccc1)C(=O)OC1CCCCC1 (stereo partly drawn) [Compound 7]			EC50 (Human rhinovirus 1B): 1 to 10 µM
COCC(COC)OC(=O)OCOP(=O)(OCOC(=O)OC(COC)COC)OC[C@@]1(CF)O[C@@H](n2ccc(=O)[nH]c2=O)[C@](C)(O)[C@@H]1O [Compound 66]			EC50 (Human rhinovirus 1B; [3]): 10 to 100 µM
C#C[C@]1(F)[C@H](n2ccc(=O)[nH]c2=O)O[C@](F)(COP(=O)(O)OP(=O)(O)OP(=O)(O)O)[C@H]1O [compound 215]	< 10		
Nc1ccn([C@@H]2O[C@@](CO)(CCl)[C@@H](O)C2(F)F)c(=O)n1 [Compound 69]			EC50 (Human rhinovirus 1B; [3]): 1 to 10 µM
CC(C)OC(=O)[C@H](C)NP(=O)(OC[C@@]1(F)O[C@@H](n2ccc(=O)[nH]c2=O)[C@](C)(O)[C@@H]1O)Oc1cccc2ccccc12 (stereo partly drawn) [Compound 150]			EC50 (Human rhinovirus 1B): 1 to 10 µM
[N-]=[N+]=NC[C@]1(CO)O[C@@H](n2ccc(N)nc2=O)[C@@H](O)[C@@H]1O [Compound 297]			EC50 (Human rhinovirus 1B; [3]): 10 to 100 µM
CCOc1nc(N)nc2c1ncn2[C@@H]1O[C@](F)(COP(=O)(N[C@@H](C)C(=O)OCC(C)(C)C)Oc2ccccc2)[C@@H](O)[C@@]1(C)O (stereo partly drawn) [Compound 33]			EC50 (Human rhinovirus 1B): < 1 µM
CCOc1nc(N)nc2c1ncn2[C@@H]1O[C@]2(F)CO[P@@](=O)(OC(C)C)O[C@H]2[C@@]1(C)F [Compound 87]			EC50 (Human rhinovirus 1B; [3]): 1 to 10 µM
C#C[C@@]1(O)[C@H](O)[C@@H](COP(=O)(O)OP(=O)(O)OP(=O)(O)O)O[C@H]1n1cnc2c(=O)[nH]c(N)nc21 [compound 203]		< 1	
